{"source": "patent US6664083B2", "about": "“Methods for racemizing N-acylamino acids and producing optically active amino acids” (Daichel Chemical Industries, Ltd., priority 2000, dated 2003)", "data": [{"test_system": "N-acylamino acid racemase", "assay": "Racemization of N-acetyltryptophan by N-acylamino acid racemase, optical purity by chiral HPLC", "format": "biochemical, Sebekia benihana", "conditions": "0.5% substrate, 1 U NAAR, pH 6.5, 30° C. overnight", "procedure": "A reaction solution containing 100 mM potassium phosphate buffer (pH 6.5), 1 U of the N-acylamino acid racemase, and 0.5% N-acetyl-L-tryptophan or N-acetyl-D-tryptophan was incubated at 30° C. overnight. Racemization was verified by measuring optical purity of tryptophan in the reaction solution by HPLC. The optical purity of N-acetyltryptophan was determined as follows. N-acetyltryptophan was extracted from the reaction solution with methyl ethyl ketone. After the solvent was removed, the reaction product was resolved by liquid chromatography using an optical resolution column. The measurement was carried out at room temperature, using CHIRALPAK WH (DAICEL CHEMICAL INDUSTRIES, LTD.) as the optical resolution column, and aqueous solution of 0.25 mM cupric sulfate as eluent (flow rate, 1 ml/min; detection wavelength, 254 nm) to determine the quantity and optical purity. As a result, it was shown that N-acetyltryptophan produced from either N-acetyl-L-tryptophan or N-acetyl-D-tryptophan by the method of the present invention was a racemate with optical purity of nearly 0% ee at the end of the reaction.", "units": {"optical purity of N-acetyltryptophan at the end of the reaction": "% ee"}, "values": [{"compound": "CC(=O)N[C@H](Cc1c[nH]c2ccccc12)C(=O)O", "note": "[N-acetyl-D-tryptophan]", "optical purity of N-acetyltryptophan at the end of the reaction": "~0"}, {"compound": "CC(=O)N[C@@H](Cc1c[nH]c2ccccc12)C(=O)O", "note": "[N-acetyl-L-tryptophan]", "optical purity of N-acetyltryptophan at the end of the reaction": "~0"}]}, {"test_system": "N-acylamino acid racemase", "assay": "Substrate specificity of N-acylamino acid racemase (enzyme activity assay, TNBS method)", "format": "biochemical, Sebekia benihana", "conditions": "substrate 20 mM, 1 mM cobalt chloride, pH 7.5, 30° C.; activity on N-acetyl-D-methionine taken as 100", "procedure": "The activity of N-acylamino acid racemase was measured by the following method. First, the following reaction solution was prepared. [table] […] Subsequently, 3 U of L-amino acylase were added to the mixture, and incubated for 1 hour at 30° C. The mixture was then heated at 100° C. for 3 minutes to stop the reaction. The amount of L-methionine produced was measured by TNBS method after the reaction was stopped. […] Substrate specificity was determined by measuring enzyme activities according to the above-mentioned enzyme assay, with varying the substrate in the reaction.", "units": {"Relative activity (%)": "%"}, "values": [{"compound": "CC(=O)N[C@H](C(=O)O)C(C)C", "note": "[N-acctylvaline]", "Relative activity (%)": 146}, {"compound": "CC(=O)N[C@@H](C)C(=O)O", "note": "[N-acetylalanine]", "Relative activity (%)": 86}, {"compound": "CC(=O)N[C@@H](CC(=O)O)C(=O)O", "note": "[N-acetylaspartic acid]", "Relative activity (%)": 68}, {"compound": "CC(=O)N[C@@H](CC(C)C)C(=O)O", "note": "[N-acetylleucine]", "Relative activity (%)": 78}, {"compound": "CSCC[C@H](NC(C)=O)C(=O)O", "note": "[N-acetylmethionine]", "Relative activity (%)": 100}, {"compound": "CC(=O)N[C@@H](Cc1ccccc1)C(=O)O", "note": "[N-acetylphenylalanine]", "Relative activity (%)": 74}, {"compound": "CC(=O)N[C@@H](Cc1c[nH]c2ccccc12)C(=O)O", "note": "[N-acetyltryptophan]", "Relative activity (%)": 69}]}, {"test_system": "N-acylamino acid racemase", "assay": "Influence of metal ions on N-acylamino acid racemase activity", "format": "biochemical, Sebekia benihana", "conditions": "1 mM", "procedure": "(§1) The activity of N-acylamino acid racemase was measured by the following method.\n(§2) To this reaction solution, 50 μl of enzyme solution was added, and the 500 μl of the mixture was allowed to react for 5 minutes (or for several ten minutes if the activity was low) at 30° C., followed by heating at 100° C. for 3 minutes to stop the reaction. Subsequently, 3 U of L-amino acylase were added to the mixture, and incubated for 1 hour at 30° C. The mixture was then heated at 100° C. for 3 minutes to stop the reaction.\n(§3) The amount of L-methionine produced was measured by TNBS method after the reaction was stopped. The enzyme activity was defined as 1 unit (U) when 1 μmole of N-acetyl-L-methionine was produced from N-acetyl-D-methionine in a minute.\n(§4) Influence of various metal ions on N-acylamino acid racemase was examined in the enzymatic activity assay in which cobalt chloride (final concentration 1 mM) to be added was omitted from the reaction solution and instead each ion was added to the reaction at a final concentration of 1 mM. The mixture was incubated for 5 minutes at 30° C., and the amount of L-methionine produced was measured to determine the effect of each metal ion on the N-acylamino acid racemase, using the reaciton solution without any metal ions as a control. The enzyme activities were represented as relative activities, taking the activity in the presence of Co as 100.", "values": [{"compound": "O.O.O.O.O.O.[Cl-].[Cl-].[Co+2]", "note": "[CoCl2.6H2O]", "effect of metal ion on NAAR activity": "effect of activation"}]}, {"test_system": "N-acylamino acid racemase", "assay": "Influence of metal ions on N-acylamino acid racemase activity", "format": "biochemical, Sebekia benihana", "conditions": "metal ion 1 mM instead of cobalt chloride, 5 minutes at 30° C.; activity in the presence of Co taken as 100", "procedure": "as §1, §2, §3, §4", "units": {"Relative activity (%)": "%"}, "values": [{"compound": "O.O.[Ba+2].[Cl-].[Cl-]", "note": "[BaCl2.2H2O]", "Relative activity (%)": 14}, {"compound": "O.O.[Ca+2].[Cl-].[Cl-]", "note": "[CaCl2.2H2O]", "Relative activity (%)": 12}, {"compound": "O.O.O.O.O.O.[Cl-].[Cl-].[Co+2]", "note": "[CoCl2.6H2O]", "Relative activity (%)": 100}, {"compound": "O.O.[Cl][Cu][Cl]", "note": "[CuCl2.2H2O]", "Relative activity (%)": 3}, {"compound": "[Cl][Fe][Cl]", "note": "[FeCl2.nH2O]", "Relative activity (%)": 34}, {"compound": "O.O.O.O.O.O.[Cl-].[Cl-].[Cl-].[Fe+3]", "note": "[FeCl3.6H2O]", "Relative activity (%)": 6}, {"compound": "[Cl-].[K+]", "note": "[KCl]", "Relative activity (%)": 16}, {"compound": "O.O.O.O.O.O.[Cl-].[Cl-].[Mg+2]", "note": "[MgCl2.6H2O]", "Relative activity (%)": 27}, {"compound": "O.O.O.O.[Cl][Mn][Cl]", "note": "[MnCl2.4H2O]", "Relative activity (%)": 60}, {"compound": "[Cl-].[Na+]", "note": "[NaCl]", "Relative activity (%)": 17}, {"compound": "O.O.O.O.O.O.[Cl][Ni][Cl]", "note": "[NiCl2.6H2O]", "Relative activity (%)": 37}, {"compound": "O.O.[Cl][Sn][Cl]", "note": "[SnCl2.2H2O]", "Relative activity (%)": 9}, {"compound": "[Cl-].[Cl-].[Zn+2]", "note": "[ZnCl2]", "Relative activity (%)": 20}, {"compound": "Al2(SO4)3.14˜18H2O", "Relative activity (%)": 3}]}, {"test_system": "N-acylamino acid racemase", "assay": "Influence of inhibitors on N-acylamino acid racemase activity", "format": "biochemical, Sebekia benihana", "conditions": "not given", "procedure": "as §1, §2, §3\n(§5) Influence of various enzyme inhibitors on N-acylamino acid racemase was examined in the enzymatic activity assay in which each inhibitor was added to the reaction solution at the final concentration of 1 mM. The mixture was incubated for 10 minutes at 30° C., using the reaction solution without any inhibitors as a control. […] For EDTA, enzyme activity was measured at a final concentration of 5 mM as well as 1 mM.", "units": {"Relative activity (%)": "%"}, "values": [{"compound": "O=C(O)CI", "note": "[Monoiodoacetic acid]", "NAAR activity inhibited": "inhibited", "Relative activity (%)": 22}]}, {"test_system": "N-acylamino acid racemase", "assay": "Influence of inhibitors on N-acylamino acid racemase activity", "format": "biochemical, Sebekia benihana", "conditions": "inhibitor 1 mM, 10 minutes at 30° C.; activity in the absence of inhibitors taken as 100", "procedure": "as §1, §2, §3, §5", "units": {"Relative activity (%)": "%"}, "values": [{"compound": "O[C@H](CS)[C@H](O)CS", "note": "(racemic) [dithiothreitol]", "Relative activity (%)": 84}, {"compound": "O=C(NNc1ccccc1)NNc1ccccc1", "note": "[1,5-Diphenylcarbonohydrazide]", "Relative activity (%)": 68}, {"compound": "c1ccc(-c2ccccn2)nc1", "note": "[2,2′-Bipyridyl]", "Relative activity (%)": 55}, {"compound": "O=C(O)CN(CCN(CC(=O)O)CC(=O)O)CC(=O)O", "note": "[EDTA]", "Relative activity (%)": 10}, {"compound": "NN.O=S(=O)(O)O", "note": "[Hydrazinium Sulfate]", "Relative activity (%)": 69}, {"compound": "NO", "note": "[Hydroxylammonium chloride]", "Relative activity (%)": 88}, {"compound": "[I-].[K+]", "note": "[KI]", "Relative activity (%)": 97}, {"compound": "CCN1C(=O)C=CC1=O", "note": "[N-ethylmaleimide]", "Relative activity (%)": 96}, {"compound": "[F-].[Na+]", "note": "[NaF]", "Relative activity (%)": 94}, {"compound": "O=C(O)c1cc[c]([Hg][Cl])cc1", "note": "[p-chloromercuribenzoic acid]", "Relative activity (%)": 11}, {"compound": "O=S(=O)(F)Cc1ccccc1", "note": "[phenylmethanesulfonyl fluoride]", "Relative activity (%)": 84}]}, {"test_system": "N-acylamino acid racemase", "assay": "Influence of inhibitors on N-acylamino acid racemase activity", "format": "biochemical, Sebekia benihana", "conditions": "inhibitor 10 mM (table), 10 minutes at 30° C.; activity in the absence of inhibitors taken as 100", "procedure": "as §1, §2, §3, §5", "units": {"Relative activity (%)": "%"}, "values": [{"compound": "O=C(O)CN(CCN(CC(=O)O)CC(=O)O)CC(=O)O", "note": "[EDTA]", "Relative activity (%)": 0}]}, {"test_system": "N-acylamino acid racemase", "assay": "Influence of inhibitors on N-acylamino acid racemase activity", "format": "biochemical, Sebekia benihana", "conditions": "result in words", "procedure": "as §1, §2, §3, §5", "values": [{"compound": "O=C(O)CN(CCN(CC(=O)O)CC(=O)O)CC(=O)O", "note": "[EDTA]", "NAAR activity inhibited": "inhibited"}, {"compound": "O=C(O)c1cc[c]([Hg][Cl])cc1", "note": "[p-chloromercuribenzoic acid]", "NAAR activity inhibited": "inhibited"}]}]}
